ChEMBL document CHEMBL1128558, “Effect of bridge region variation on antifolate and antitumor activity of classical 5-substituted 2,4-diaminofuro[2,3-d]pyrimidines” (J Med Chem, 1995)

B1: Folylpolyglutamate synthase, mitochondrial (Homo sapiens), Q05932 (protein)
chain: MSRARSHLRAALFLAAASARGITTQVAARRGLSAWPVPQEPSMEYQDAVRMLNTLQTNAGYLEQVKRQRGDPQTQLEAMELYLARSGLQVEDLDRLNIIHVTGTKGKGSTCAFTECILRSYGLKTGFFSSPHLVQVRERIRINGQPISPELFTKYFWRLYHRLEETKDGSCVSMPPYFRFLTLMAFHVFLQEKVDLAVVEVGIGGAYDCTNIIRKPVVCGVSSLGIDHTSLLGDTVEKIAWQKGGIFKQGVPAFTVLQPEGPLAVLRDRAQQISCPLYLCPMLEALEEGGPPLTLGLEGEHQRSNAALALQLAHCWLQRQDRHGAGEPKASRPGLLWQLPLAPVFQPTSHMRLGLRNTEWPGRTQVLRRGPLTWYLDGAHTASSAQACVRWFRQALQGRERPSGGPEVRVLLFNATGDRDPAALLKLLQPCQFDYAVFCPNLTEVSSTGNADQQNFTVTLDQVLLRCLEHQQHWNHLDEEQASPDLWSAPSPEPGGSASLLLAPHPPHTCSASSLVFSCISHALQWISQGRDPIFQPPSPPKGLLTHPVAHSGASILREAAAIHVLVTGSLHLVGGVLKLLEPALSQ

Columns and labels:
CCRF-CEM [1] = experiment: he compound was tested for Growth inhibition of the Human T-lymphoblastic Leukemia cell line CCRF-CEM; type: functional, cell-based
Dihydrofolate reductase [2] = target: T1, Dihydrofolate reductase (Homo sapiens, UniProt P00374); experiment: Inhibitory concentration against recombinant human DHFR(Dihydro folate reductase).
T1 sequence (P00374 whole entry): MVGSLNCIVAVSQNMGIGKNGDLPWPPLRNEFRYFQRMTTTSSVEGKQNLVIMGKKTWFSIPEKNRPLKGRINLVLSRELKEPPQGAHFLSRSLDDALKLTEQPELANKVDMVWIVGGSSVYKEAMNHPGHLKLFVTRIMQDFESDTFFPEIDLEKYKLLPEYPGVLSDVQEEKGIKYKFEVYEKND

Thymidylate synthase [3] = target: T2, Thymidylate synthase (Lactobacillus casei, UniProt P00469); experiment: Inhibitory concentration against Lactobacillus casei TS (Thymidylate synthase).; design: species or system Lacticaseibacillus casei
T2 sequence (P00469 whole entry): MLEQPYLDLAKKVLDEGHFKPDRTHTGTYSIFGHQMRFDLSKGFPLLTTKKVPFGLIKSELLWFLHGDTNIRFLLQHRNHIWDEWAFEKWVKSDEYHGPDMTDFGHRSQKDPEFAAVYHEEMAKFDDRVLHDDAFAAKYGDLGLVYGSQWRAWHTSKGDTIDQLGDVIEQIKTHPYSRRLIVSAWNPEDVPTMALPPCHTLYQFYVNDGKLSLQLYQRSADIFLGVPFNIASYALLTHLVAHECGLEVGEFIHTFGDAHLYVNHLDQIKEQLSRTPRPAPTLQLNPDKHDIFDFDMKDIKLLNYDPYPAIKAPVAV

Dihydrofolate reductase [4] = target: Dihydrofolate reductase (Lactobacillus casei, UniProt P00381)
Description: inhibitory concentration against Lactobacillus casei DHFR(Dihydro folate reductase).

[5] = Ratio of Vmax to Km
CCRF-CEM [6] = experiment: Compound was tested for Growth inhibition of the Human T-lymphoblastic Leukemia cell line CCRF-CEM; type: functional, cell-based
FaDu [7] = experiment: Protection by combination of 50 uM Hx (Hypoxanthine) + 40 uM TdR(thymidine) against the growth inhibition of FaDu cells induced by the compound; type: functional, Homo sapiens; design: scale not given: the % may be the effect or the level left
FaDu [8] = experiment: Protection by 50 uM Hx (Hypoxanthine) against the growth inhibition of FaDu cells induced by the compound; type: functional, Homo sapiens; design: scale not given: the % may be the effect or the level left
FaDu [9] = experiment: The compound was tested for Growth inhibition of the human squamous cell carcinoma FaDu cells; type: functional, cell-based
FaDu [10] = experiment: Protection by 40 uM TdR(thymidine) against the growth inhibition of FaDu cells induced by the compound; type: functional, Homo sapiens; design: scale not given: the % may be the effect or the level left
FaDu [11] = experiment: Protection by 10 uM LV(leucovorin) against the growth inhibition of FaDu cells induced by the compound; type: functional, Homo sapiens; design: scale not given: the % may be the effect or the level left
FaDu [12] = experiment: The compound was tested for growth inhibition against FaDu cells; type: functional, Homo sapiens; design: scale not given: the % may be the effect or the level left
A253 cell line = experiment: The compound was tested for Growth inhibition of the human squamous cell carcinoma A253 cells; type: functional, cell-based
CCRF-CEM [13] = experiment: The compound was tested for Growth inhibition of Methotrexate-resistant human T-lymphoblastic leukemia cell line CCRF-CEM(sub line R30dm); type: functional, cell-based
Thymidylate synthase [14] = target: Thymidylate synthase (Homo sapiens, UniProt P04818); experiment: Inhibitory concentration against recombinant human TS (Thymidylate synthase).
[15] = substrate: Nc1nc(N)c2nc(CNc3ccc(C(=O)N[C@@H](CCC(=O)O)C(=O)O)cc3)cnc2n1; experiment: (§1) Substrate activity against CCRF-CEM human leukemia cell Folyl-polyglutamate synthase
[16] = substrate: Nc1nc(N)c2c(CCc3ccc(C(=O)N[C@@H](CCC(=O)O)C(=O)O)cc3)coc2n1; experiment: as §1
[17] = substrate: Nc1nc(N)c2nc(CNc3ccc(C(=O)N[C@@H](CCC(=O)O)C(=O)O)cc3)cnc2n1; experiment: (§2) Vmax value for substrate activity against CCRF-CEM human leukemia cell Folyl-polyglutamate synthase; type: cell-based
[18] = substrate: Nc1nc(N)c2c(CNCc3ccc(C(=O)N[C@@H](CCC(=O)O)C(=O)O)cc3)coc2n1; experiment: as §2; type: cell-based
[19] = substrate: Nc1nc(N)c2c(CCc3ccc(C(=O)N[C@@H](CCC(=O)O)C(=O)O)cc3)coc2n1; experiment: as §2; type: cell-based

Dihydrofolate reductase (Lactobacillus casei, UniProt P00381), sequence (P00381 whole entry): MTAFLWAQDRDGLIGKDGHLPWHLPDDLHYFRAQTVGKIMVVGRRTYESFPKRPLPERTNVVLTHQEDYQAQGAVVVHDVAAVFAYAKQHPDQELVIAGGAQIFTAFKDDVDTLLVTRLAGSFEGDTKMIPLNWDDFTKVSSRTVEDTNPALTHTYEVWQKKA
Thymidylate synthase (Homo sapiens, UniProt P04818), sequence (P04818 whole entry): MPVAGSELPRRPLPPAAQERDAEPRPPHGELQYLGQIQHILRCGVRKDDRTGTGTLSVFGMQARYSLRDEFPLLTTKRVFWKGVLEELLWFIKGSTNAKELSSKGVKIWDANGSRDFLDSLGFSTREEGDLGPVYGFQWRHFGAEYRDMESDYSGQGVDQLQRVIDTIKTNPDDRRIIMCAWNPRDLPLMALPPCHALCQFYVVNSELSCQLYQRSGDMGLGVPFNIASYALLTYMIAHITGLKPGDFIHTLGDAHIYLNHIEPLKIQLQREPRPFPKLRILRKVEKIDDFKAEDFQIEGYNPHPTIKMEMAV

Row | Molecule | IC50 (Dihydrofolate reductase [2]) | IC50 (Thymidylate synthase [3]) | IC50 (Dihydrofolate reductase [4]) | Ratio [5] | Control (FaDu [8]) | EC50 (FaDu [9]) | Control (FaDu [10]) | Control (FaDu [11]) | Control (FaDu [12]) | EC50 (A253 cell line) | further results
1 | Nc1nc(N)c2c(CNCc3ccc(C(=O)N[C@@H](CCC(=O)O)C(=O)O)cc3)coc2n1 | > 200000 nM | > 200000 nM | > 200000 nM | – | – | – | – | – | – | – | EC50 (CCRF-CEM [1]): 48000 nM
2 | Nc1nc(N)c2nc(CNc3ccc(C(=O)N[C@@H](CCC(=O)O)C(=O)O)cc3)cnc2n1 | – | – | – | 0.21 | – | – | – | – | – | – | –
3 | Nc1nc(N)c2c(CCc3ccc(C(=O)N[C@@H](CCC(=O)O)C(=O)O)cc3)coc2n1 | – | 200000 nM | – | 0.07 | 4% | 180 nM | 14% | 105% | 7% | 540 nM | EC50 (CCRF-CEM [6]): 290 nM; Control (FaDu [7]): 107%; EC50 (CCRF-CEM [13]): 4250 nM
4 | Nc1nc(N)c2c(CNc3ccc(C(=O)N[C@@H](CCC(=O)O)C(=O)O)cc3)coc2n1 | 450 nM | > 200000 nM | 560 nM | – | – | – | – | – | – | – | IC50 (Thymidylate synthase [14]): > 200000 nM
5 | CN(Cc1cnc2nc(N)nc(N)c2n1)c1ccc(C(=O)N[C@@H](CCC(=O)O)C(=O)O)cc1 [METHOTREXATE] | – | – | – | – | 6% | 17 nM | 8% | 96% | 2% | 13 nM | –
6 | B1 | – | – | – | – | – | – | – | – | – | – | Km [15]: 4.8 µM; Km [16]: 8.5 µM; Vmax [17]: 1; Vmax [18]: 0.6; Vmax [19]: 0.65
